Target: T1, human Gcn5L2 (hsGcn5L2) (Homo sapiens, UniProt Q92830)
T1 construct: gene KAT2A; catalytic domain, amino acids 497–662
Experiment: X-ray crystal structure ([…] Å); Ki from enzyme-coupled acetylation assay on purified catalytic domain
Type: biochemical

T1 sequence (Q92830 497-662): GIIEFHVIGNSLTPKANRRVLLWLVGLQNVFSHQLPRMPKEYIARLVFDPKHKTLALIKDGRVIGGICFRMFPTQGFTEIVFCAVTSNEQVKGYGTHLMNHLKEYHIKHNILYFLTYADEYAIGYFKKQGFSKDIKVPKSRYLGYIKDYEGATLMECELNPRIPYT

Ki: 5.6 ± 0.7 µM
Compound: CCCC(=O)SCCNC(=O)CCNC(=O)[C@H](O)C(C)(C)COP(=O)(O)OP(=O)(O)OC[C@H]1O[C@@H](n2cnc3c(N)ncnc32)[C@H](O)[C@@H]1OP(=O)(O)O [butyryl-CoA]

From PMC4932917, “Structural basis for acyl-group discrimination by human Gcn5L2” (Acta Crystallographica. Section D, Structural Biology, 2016)
